This is an account of results in paper PMC12596500, “Affinity-selected peptide ligands specifically bind i-motif DNA and modulate c-Myc gene expression” (Nucleic Acids Research, 2025).

Usually Kd stands for the free concentration of one partner at which half of the binding sites on the other are occupied at equilibrium, for simple one-to-one binding.

Experiment [1] addresses short c-Myc iM-forming sequence. The following applies: cited from earlier work. Here is the method:
To support the experiments on the stabilizing properties of the peptides, we also performed direct binding measurements of Pep-VSE and Pep-PTN using UV titrations. Binding curves are provided in Supplementary Fig. S11, and Kds are in Table 2. These experiments reveal tight binding of both PTN (0.93 ± 0.08 µM) and VSE (0.43 ± 0.03 µM) compared to other DNA structures. Although binding was detected for both peptides against c-MycG52, the G4-forming sequence in the complementary strand, there was no plateau at the concentrations examined. So, we have estimated a lower limit of 50 µM as the potent ...

Experiment [2] relates to c-MycC52 iM. Briefly: Fluorescent indicator displacement (FID) assay with Thiazole Orange. The experiment is classed as binding. The following applies: 1 µM c-MycC52, 2 µM TO, 10 mM sodium cacodylate pH 6.6, peptides 25-200 µM, n = 3. Here is the method:
Fluorescent indicator displacement (FID) experiments used in this publication are based on the first FID assay developed for iM DNA [35]. The FID experiments were performed on a BMG CLARIOstar plate reader using 96-well, solid black flat-bottom plates. Thiazole Orange (TO) was the indicator, and the stock solution was prepared at 10 mM in DMSO. The TO stock was diluted into the appropriate buffer to 2 µM. Each well received 9 µl of the 2 µM TO solution, was excited at 430 nm, and fluorescence emission at 450 nm was measured; this was normalized to 0% to account for background fluorescence. One microlitre of […] DNA was added to each well and shaken in the plate reader for 30 s using double orbital shaking at 700 rpm and left for 10 min to equilibrate. Following equilibration, fluorescence emission was measured and normalized to 100% representing maximum fluorescence. Peptides were titrated starting at 25 µM, with 0.9 µl additions into each well in triplicate, until a final concentration of 200 µM was reached, and fluorescence emission was measured after each addition. Fluorescence emission for each well was normalized between 0% and 100%, which was taken away from 100 to give the percentage of displacement. The data were analyzed in Origin data analysis software and fitted with a hyperbolic dose–response curve from which the DC50 value was interpolated.
The relative binding of the five peptide ligands to the folded c-MycC52 iM was assessed via a FID assay using TO (Fig. 1). These experiments were performed in 10 mM sodium cacodylate at pH 6.6, the transitional pH of the c-Myc iM-forming sequence. As iM-formation is reduced at higher pH and higher ionic strength, additional stabilizing cations were avoided to allow the highest proportion of iM formation at the highest pH, to represent as close to physiological pH conditions as possible.
Figure 1. Concentration-dependent interaction of peptides with c-MycC52 iM determined via FID assay. The assay was performed with 1 µM c-MycC52 in 10 mM sodium cacodylate, pH 6.6, in the presence of 2 µM TO. Peptide ligands were added in increments of 25 µM up to a final concentration of 200 µM. Data are presented as mean ± SD (n = 3) and fitted using a Hill-Slope dose–response curve.

Experiment [3] relates to dsDNA (DS). Briefly: CD melting of double-stranded DNA. The experiment is classed as binding. The following applies: 10 µM DS, 10 mM NaCaco pH 6.6, 10 molar eqv. peptide vs buffer; n=2. As for the experimental part:
Circular Dichroism (CD) melting experiments were performed in a Jasco J-1500 spectropolarimeter with 10 µM DNA samples in 10 mM sodium cacodylate buffer at pH 6.6 using a 1 mm path length quartz cuvette. […] The samples were kept at 5°C for 5 min before starting the melt, with a temperature increase of 1°C/min, a 0.5°C data interval, and a 60-s holding time at each target temperature. Four scans were accumulated data pitch of 0.5 nm, a scanning speed of 200 nm/min, 1 s response time, 2 nm bandwidth, and 200 mdeg sensitivity. Furthermore, two CD melting experiment repeats were performed recording C-rich c-Myc at 288 and 320 nm, G-rich c-Myc at 264 and 320 nm, and dsDNA at 253 and 320 nm with the settings as described for full spectrum measurements. Data were zero corrected to 320 nm and baseline drift. The melting temperature (TM) was concluded using the Boltzmann or biphasic fitting curve on the folded fraction data using GraphPad Prism version 10.1.2. Data were processed as mean ± SEM (n = 4) and one-way ANOVA followed by Bonferroni post-hoc test to determine significant changes between peptides and controls.

For the compound `NC[C@H]1O[C@H](O[C@H]2[C@H](O)[C@@H](O[C@H]3O[C@H](CO)[C@@H](O)[C@H](N)[C@H]3O)[C@H](N)C[C@@H]2N)[C@H](N)C[C@@H]1O` [tobramycin], the dissociation constant Kd in experiment [1] was 13 µM.
For the compound “EIEY TDHMK ELG [Pep-EIE, linear 12-mer peptide selected by phage display against c-MycC52; N-terminal acetylation, C-terminal amidation]”, the “relative binding affinity ranking (TO displacement)” value (“relative binding affinity ranking” below) in experiment [2] is recorded as “SLC > PTN > VSE > EIE > RVS”.
For “RVS TDHMK GRGG [Pep-RVS, linear 12-mer peptide selected by phage display against c-MycC52; N-terminal acetylation, C-terminal amidation]”, in experiment [2], the “relative binding affinity ranking” value is given as “SLC > PTN > VSE > EIE > RVS”.
Consider “SLCDIIRIEKVR [Pep-SLC, linear 12-mer peptide selected by phage display against c-MycC52; N-terminal acetylation, C-terminal amidation]”, for which the “relative binding affinity ranking” value in experiment [2] is given as “SLC > PTN > VSE > EIE > RVS”. Also, the “destabilization of dsDNA (decrease in TM)” value in experiment [3] came out at 5 °C.
